In patent publication US20210220356A1, “DIHYDROPYRIMIDINE DERIVATIVES AND USES THEREOF IN THE TREATMENT OF HBV INFECTION OR OF HBV-INDUCED DISEASES” (Janssen Sciences Ireland Unlimited Company, priority 2018, published 2021) one finds EC50 and CC50 data, which are given here for 19 compounds.

In one data set the test system is HBV. As to the kind of experiment: HBV inhibitory activity in HepG2.2.15 cells (HBV DNA in culture medium by q-PCR). In kind it is cell-based. The note with it: HepG2.2.15 cells, 40,000 cells/well, 6 days of compound treatment, HBV DNA in culture medium by q-PCR, highest concentration 10 uM; read-out: EC50. Here is the method:
(§1) • HepG2.2.15 (the HepG2.2.15 cell line can be produced by transfection of the HepG2 cell line as described in Sells, Chen, and Acs 1987 (Proc. Natl. Acad. Sci. USA 84: 1005-1009), and the HepG2 cell line is available from ATCC® under number HB-8065™)
(§2) Seed the cell HepG2.2.15 cells into 96-well plate in 2% FBS culture medium at the density of 40,000 cells/well and 5,000 cells/well for HBV inhibitory activity and cytotoxicity determination, respectively. After seeding, incubate the cell plates at 37° C., 5% CO2 overnight. The next day, medium containing compounds is added to the cell to treat the cells for 6 days with medium refreshed once in the middle of the treatment. 8 dose points with 3 folds dilution of each compound were adopted and the highest concentration of the compounds is 10 uM and 100 uM for HBV inhibitory activity and cytotoxicity determination, respectively.
The HBV DAN change in the cell culture medium induced by the compounds is measured by q-PCR method. Briefly, the HBV DNA in the culture medium is extracted using QIAamp 96 DNA Blood Kit according to the manual and then quantified by q-PCR using the primers and probe in the table below.
(§3) EC50 and CC50 values are calculated by the GRAPHPAD PRISM software.

For the next data set, the system named is HepG2.2.15 cells. As to the kind of experiment: Cytotoxicity determination in HepG2.2.15 cells (CCK-8). It counts as cell-based. The note with it: HepG2.2.15 cells, 5,000 cells/well, 6 days of compound treatment, CCK-8 absorbance 450 nm, highest concentration 100 uM. The protocol: as §1, §2
After 6 days of compounds treatment, add 20 μl CCK-8 reagents to each well of cytotoxicity assay plates, incubate the plate at 37° C., 5% CO2 for 2.5 h and measure the absorbance at 450 nm wavelength, at the same time read the absorbance at 630 nm wavelength as reference.
as §3

As to `CCOC(=O)C1=C(C2CCc3nn(CCC(=O)O)cc3C2)NC(c2nccs2)=NC1c1ccc(F)c(F)c1Cl` (single isomer, unassigned) [Compound 34c, 3-(5-(6-(2-chloro-3,4-difluorophenyl)-5-(ethoxycarbonyl)-2-(thiazol-2-yl)-3,6-dihydropyrimidin-4-yl)-4,5,6,7-tetrahydro-2H-indazol-2-yl)propanoic acid], the EC50 with HBV was under 0.0046 µM. The same compound showed a CC50 in the data set on HepG2.2.15 cells of 14.9 µM.

Regarding `CCOC(=O)C1=C(C2CCc3nn(CCC(=O)O)cc3C2)NC(c2nccs2)=NC1c1ccc(F)c(F)c1Cl` (single isomer, unassigned) [Compound 34d, 3-(5-(6-(2-chloro-3,4-difluorophenyl)-5-(ethoxycarbonyl)-2-(thiazol-2-yl)-3,6-dihydropyrimidin-4-yl)-4,5,6,7-tetrahydro-2H-indazol-2-yl)propanoic acid], the EC50 in the data set with HBV was found to be 0.146 µM. Besides, half-maximal cytotoxicity in the data set on HepG2.2.15 cells (CC50) was put at 20.6 µM.

With `CCOC(=O)C1=C(C2CCc3nn(CCC(=O)O)cc3C2)NC(c2nccs2)=NC1c1ccc(F)c(F)c1C` (single isomer, unassigned) [Compound 35c, 3-(5-(6-(3,4-Difluoro-2-methylphenyl)-5-(ethoxycarbonyl)-2-(thiazol-2-yl)-3,6-dihydropyrimidin-4-yl)-4,5,6,7-tetrahydro-2H-indazol-2-yl)propanoic acid], in the data set with HBV, the 50% effective concentration (EC50) was under 0.0046 µM. The same compound showed a half-maximal cytotoxic concentration (CC50) with HepG2.2.15 cells of 14.4 µM.

For `CCOC(=O)C1=C(C2CCc3nn(CCC(=O)O)cc3C2)NC(c2nccs2)=NC1c1ccc(F)c(F)c1Br` (single isomer, unassigned) [Compound 36b, 3-(5-(6-(2-Bromo-3,4-difluorophenyl)-5-(ethoxycarbonyl)-2-(thiazol-2-yl)-3,6-dihydropyrimidin-4-yl)-4,5,6,7-tetrahydro-2H-indazol-2-yl)propanoic acid], the EC50 in the data set on HBV was 0.0965 µM. The compound further had a half-maximal cytotoxic concentration (CC50) in the data set with HepG2.2.15 cells of 11.7 µM.

`CCOC(=O)C1=C(C2CCc3nn(CCC(=O)O)cc3C2)NC(c2nccs2)=NC1c1ccc(F)cc1Cl` (single isomer, unassigned) [Compound 37c, 3-(5-(6-(2-Chloro-4-fluorophenyl)-5-(ethoxycarbonyl)-2-(thiazol-2-yl)-3,6-dihydropyrimidin-4-yl)-4,5,6,7-tetrahydro-2H-indazol-2-yl)propanoic acid]: in the data set with HBV, the half-maximal effective concentration (EC50) stood at 0.0222 µM. The compound also had a CC50 with HepG2.2.15 cells of 21.1 µM.

For the compound `CCOC(=O)C1=C(C2CCc3nn(CCC(=O)O)cc3C2)NC(c2nccs2)=NC1c1ccc(F)cc1Cl` (single isomer, unassigned) [Compound 37d, 3-(5-(6-(2-Chloro-4-fluorophenyl)-5-(ethoxycarbonyl)-2-(thiazol-2-yl)-3,6-dihydropyrimidin-4-yl)-4,5,6,7-tetrahydro-2H-indazol-2-yl)propanoic acid], the EC50 in the data set on HBV came out at 0.88 µM. In addition, in the data set on HepG2.2.15 cells, the CC50 stood at 18.9 µM.

Consider `CCOC(=O)C1=C(C2CCc3nn(CCC(=O)O)cc3C2)NC(c2nccs2)=NC1c1ccc(F)cc1C` (single isomer, unassigned) [Compound 38b, 3-(5-(5-(Ethoxycarbonyl)-6-(4-fluoro-2-methylphenyl)-2-(thiazol-2-yl)-3,6-dihydropyrimidin-4-yl)-4,5,6,7-tetrahydro-2H-indazol-2-yl)propanoic acid], for which the EC50 with HBV came to 0.667 µM. In the data set on HepG2.2.15 cells, this compound gave a 50% cytotoxic concentration (CC50) of 22.9 µM.

Consider `CCOC(=O)C1=C(C2CCc3nn(CCC(=O)O)cc3C2)NC(c2nccs2)=NC1c1ccc(F)cc1C` (single isomer, unassigned) [Compound 38c, 3-(5-(5-(Ethoxycarbonyl)-6-(4-fluoro-2-methylphenyl)-2-(thiazol-2-yl)-3,6-dihydropyrimidin-4-yl)-4,5,6,7-tetrahydro-2H-indazol-2-yl)propanoic acid], for which the EC50 in the data set on HBV worked out at 0.0146 µM. This compound came in with a CC50 in the data set with HepG2.2.15 cells of 19.6 µM.

Regarding `CCOC(=O)C1=C(C2CCc3nn(CCC(=O)O)cc3C2)NC(c2nccs2)=NC1c1ccc(F)cc1Br` (single isomer, unassigned) [Compound 39c, 3-(5-(6-(2-Bromo-4-fluorophenyl)-5-(ethoxycarbonyl)-2-(thiazol-2-yl)-3,6-dihydropyrimidin-4-yl)-4,5,6,7-tetrahydro-2H-indazol-2-yl)propanoic acid], the concentration giving a half-maximal response (EC50) in the data set on HBV amounted to 0.0145 µM. Besides, in the data set with HepG2.2.15 cells, the CC50 stood at 11.9 µM.

For the compound `CCOC(=O)C1=C(C2CCc3nn(CCC(=O)O)cc3C2)NC(c2nccs2)=NC1c1cccc(F)c1Cl` (single isomer, unassigned) [Compound 40c, 3-(5-(6-(2-Chloro-3-fluorophenyl)-5-(ethoxycarbonyl)-2-(thiazol-2-yl)-3,6-dihydropyrimidin-4-yl)-4,5,6,7-tetrahydro-2H-indazol-2-yl)propanoic acid], in the data set with HBV, the 50% effective concentration (EC50) is 0.0331 µM. The compound further had a 50% cytotoxic concentration (CC50) in the data set with HepG2.2.15 cells of 12.5 µM.

`CCOC(=O)C1=C(C2CCc3nn(CCC(=O)O)cc3C2)NC(c2nccs2)=NC1c1cccc(F)c1C` (single isomer, unassigned) [Compound 41b, 3-(5-(5-(Ethoxycarbonyl)-6-(3-fluoro-2-methylphenyl)-2-(thiazol-2-yl)-3,6-dihydropyrimidin-4-yl)-4,5,6,7-tetrahydro-2H-indazol-2-yl)propanoic acid]: the 50% effective concentration (EC50) in the data set on HBV amounted to 0.292 µM. This compound came in with a CC50 in the data set with HepG2.2.15 cells of 6.6 µM.

Consider `CCOC(=O)C1=C(C2CCc3nn(CCC(=O)O)cc3C2)NC(c2nccs2)=NC1c1cccc(F)c1C` (single isomer, unassigned) [Compound 41c, 3-(5-(5-(Ethoxycarbonyl)-6-(3-fluoro-2-methylphenyl)-2-(thiazol-2-yl)-3,6-dihydropyrimidin-4-yl)-4,5,6,7-tetrahydro-2H-indazol-2-yl)propanoic acid], for which the half-maximal effective concentration (EC50) with HBV was 0.0304 µM. Half-maximal cytotoxicity with HepG2.2.15 cells (CC50) was put at 14.4 µM.

For `CCOC(=O)C1=C(C2CCc3nn(CCC(=O)O)cc3C2)NC(c2nccs2)=NC1c1cccc(F)c1Br` (single isomer, unassigned) [Compound 42d, 3-(5-(6-(2-bromo-3-fluorophenyl)-5-(ethoxycarbonyl)-2-(thiazol-2-yl)-3,6-dihydropyrimidin-4-yl)-4,5,6,7-tetrahydro-2H-indazol-2-yl)propanoic acid], the EC50 in the data set on HBV was found to be 0.0242 µM. The compound further had a CC50 with HepG2.2.15 cells of 12.7 µM.

Consider `CCOC(=O)C1=C(C2CCc3nn(CCC(=O)O)cc3C2)NC(c2ncc(F)cc2F)=NC1c1ccc(F)c(F)c1Cl` (single isomer, unassigned) [Compound 43c, 3-(5-(6-(2-Chloro-3,4-difluorophenyl)-2-(3,5-difluoropyridin-2-yl)-5-(ethoxycarbonyl)-3,6-dihydropyrimidin-4-yl)-4,5,6,7-tetrahydro-2H-indazol-2-yl)propanoic acid], for which, in the data set with HBV, the EC50 amounted to 0.0059 µM. This compound yielded a CC50 in the data set on HepG2.2.15 cells of 29.9 µM.

For `COC(=O)C1=C(C2CCc3nn(CCC(=O)O)cc3C2)NC(c2nccs2)=NC1c1cccc(F)c1Cl` (single isomer, unassigned) [Compound 44c, 3-(5-(6-(2-Chloro-3-fluorophenyl)-5-(methoxycarbonyl)-2-(thiazol-2-yl)-3,6-dihydropyrimidin-4-yl)-4,5,6,7-tetrahydro-2H-indazol-2-yl)propanoic acid], the concentration giving a half-maximal response (EC50) in the data set on HBV came out at 0.0329 µM. Also, the 50% cytotoxic concentration (CC50) in the data set with HepG2.2.15 cells is 36.7 µM.

On to `COC(=O)C1=C(C2CCc3nn(CCC(=O)O)cc3C2)NC(c2nccs2)=NC1c1cccc(F)c1Br` (single isomer, unassigned) [Compound 45c, 3-(5-(6-(2-Bromo-3-fluorophenyl)-5-(methoxycarbonyl)-2-(thiazol-2-yl)-3,6-dihydropyrimidin-4-yl)-4,5,6,7-tetrahydro-2H-indazol-2-yl)propanoic acid], for which, in the data set on HBV, the EC50 was 0.0473 µM. Besides, the CC50 with HepG2.2.15 cells is 32.2 µM.

`COC(=O)C1=C(C2CCc3nn(CCC(=O)O)cc3C2)NC(c2nccs2)=NC1c1ccc(F)c(F)c1Br` (single isomer, unassigned) [Compound 46d, 3-(5-(6-(2-Bromo-3,4-difluorophenyl)-5-(methoxycarbonyl)-2-(thiazol-2-yl)-3,6-dihydropyrimidin-4-yl)-4,5,6,7-tetrahydro-2H-indazol-2-yl)propanoic acid]: in the data set with HBV, the concentration for a half-maximal effect (EC50) came out at 0.0136 µM. This compound displayed a CC50 in the data set on HepG2.2.15 cells of 10.7 µM.

Take `COC(=O)C1=C(C2CCc3nn(CCC(=O)O)cc3C2)NC(c2nccs2)=NC1c1ccc(F)cc1Cl` (single isomer, unassigned) [Compound 47b, 3-(5-(6-(2-Chloro-4-fluorophenyl)-5-(methoxycarbonyl)-2-(thiazol-2-yl)-3,6-dihydropyrimidin-4-yl)-4,5,6,7-tetrahydro-2H-indazol-2-yl)propanoic acid]: the 50% effective concentration (EC50) in the data set on HBV amounted to 0.47 µM. In the data set on HepG2.2.15 cells, this compound showed a half-maximal cytotoxic concentration (CC50) of 37.7 µM.

`CCOC(=O)C1=C(C2CCc3nn(C(C)CC(=O)O)cc3C2)NC(c2nccs2)=NC1c1ccc(F)c(F)c1Cl` (single isomer, unassigned) [Compound 52b, 3-(5-(6-(2-chloro-3,4-difluorophenyl)-5-(ethoxycarbonyl)-2-(thiazol-2-yl)-3,6-dihydropyrimidin-4-yl)-4,5,6,7-tetrahydro-2H-indazol-2-yl)butanoic acid]: the CC50 in the data set with HepG2.2.15 cells was determined as 5.8 µM.
